Our source for the IC50 values is US10428104B2, “Substituted nucleoside derivatives useful as anticancer agents” (Pfizer Inc., priority 2015, dated 2019).

Molecules are shown by their SMILES.

Assay [1] deals with A549 lung adenocarcinoma cells. The assay is described as follows: A549 proliferation assay (Cell Titer Glo, 7 days). The assay is classed as cell-based. Conditions: Homo sapiens, 168 h, 7 days with compound, cell viability by Cell Titer Glo (ATP). On the procedure: A549 lung adenocarcinoma cells (American Type CuIture Collection) were maintained in DMEM growth media (Life Technologies) supplemented with 10% v/v heat inactivated fetal bovine serum (Sigma) and cultured at 37° C., 5% CO2. Exponentially growing A549 cells were plated in 96-well black tissue culture treated plates (Corning) at a density of 2500 cells/ml in a volume of 100 μl culture media and allowed to adhere overnight at 37° C., 5% CO2. The following day, compound plates were prepared by making nine-point 3.3-fold dilutions in DMSO with a top concentration of 10 mM. Compounds were further diluted in culture media and 11 μl was added to the cells (final top assay concentration was 10 μM and DMSO was […]). Cells were incubated with compound at 37° C., 5% CO2 for 7 days with media and compound replacement on day 4. Cell viability was assayed on Day 7 by adding 100 μl Cell Titer Glo (Promega) reagent to the plate to measure the amount of ATP present in the cells. Luminescence was read using the Envision 2104 Multilabel Reader (Perkin Elmer).
Results for the A549 proliferation assay of examples are summarized in Table 2, shown as IC50 values in μM.
(In general: In ATP-based viability assays light output follows the ATP content of the culture.)

Assay [2] deals with PRMT5/MEP50 protein complex (Homo sapiens (Human), UniProt O14744). In words: PRMT5 biochemical assay (3H-SAM methylation of H4(1-21) peptide, filter plate scintillation counting). The following applies: PRMT5 enzyme inhibition; 10 nM PRMT5/MEP50 complex, 200 nM H4(1-21) peptide, 1 uM SAM, 25 minute incubation at room temperature. In short, it runs like this: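 Flag-PRMT5/MEP50 was co-expressed in Sf21 cells and Flag-affinity purified. Reactions used 10 nM complex, 200 nM H4(1-21) peptide and 1 uM 3H-SAM (final) in 50 mM Tris pH 8.5, 50 mM NaCl, 5 mM MgCl2, 1 mM EDTA and 1 mM TCEP, run 25 min at room temperature. Reactions were TCA-stopped, filter-captured and scintillation-counted; IC50 came from a 4-parameter fit.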
PRMT5/MEP50 protein complex, sequence (O14744 other isoform, or with tags, fused parts or gaps): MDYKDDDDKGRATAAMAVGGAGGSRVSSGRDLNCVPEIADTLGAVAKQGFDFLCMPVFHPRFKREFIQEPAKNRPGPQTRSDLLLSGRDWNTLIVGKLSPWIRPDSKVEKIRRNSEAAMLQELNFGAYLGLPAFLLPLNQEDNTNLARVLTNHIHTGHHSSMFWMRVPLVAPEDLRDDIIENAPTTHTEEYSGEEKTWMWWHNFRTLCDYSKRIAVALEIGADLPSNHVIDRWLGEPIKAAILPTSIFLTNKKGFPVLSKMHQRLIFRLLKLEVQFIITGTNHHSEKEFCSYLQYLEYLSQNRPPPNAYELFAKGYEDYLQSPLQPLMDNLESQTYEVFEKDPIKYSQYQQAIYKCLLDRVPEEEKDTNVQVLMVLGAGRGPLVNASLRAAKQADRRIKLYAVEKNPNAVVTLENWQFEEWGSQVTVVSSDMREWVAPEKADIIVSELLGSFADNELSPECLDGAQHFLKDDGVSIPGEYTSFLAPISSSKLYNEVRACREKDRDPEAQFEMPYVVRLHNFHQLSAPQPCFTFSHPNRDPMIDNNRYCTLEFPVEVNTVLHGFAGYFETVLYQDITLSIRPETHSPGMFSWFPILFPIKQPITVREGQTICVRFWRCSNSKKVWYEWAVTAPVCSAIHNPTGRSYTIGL
PRMT5/MEP50 protein complex, sequence (Q9BQA1 whole entry partner): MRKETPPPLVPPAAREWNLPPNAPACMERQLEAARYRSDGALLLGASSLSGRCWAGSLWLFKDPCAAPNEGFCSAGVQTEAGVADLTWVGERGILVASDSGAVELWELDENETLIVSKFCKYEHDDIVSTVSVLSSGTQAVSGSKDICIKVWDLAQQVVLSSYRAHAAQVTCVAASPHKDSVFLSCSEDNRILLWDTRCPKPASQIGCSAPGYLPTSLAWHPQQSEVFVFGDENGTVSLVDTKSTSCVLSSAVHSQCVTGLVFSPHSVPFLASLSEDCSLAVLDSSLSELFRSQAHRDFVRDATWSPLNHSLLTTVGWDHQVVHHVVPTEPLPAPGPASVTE

A word on the IC50: it is the point on the concentration scale where inhibition reaches its midpoint. In the case of `Cc1ncnc2c1ccn2[C@@H]1O[C@H]([C@H](O)c2cccc3c2CNCC3)[C@@H](O)[C@H]1O` [Example 112, (2R,3S,4R,5R)-2-((R)-hydroxy(1,2,3,4-tetrahydroisoquinolin-8-yl)methyl)-5-(4-methyl-7H-pyrrolo[2,3-d]pyrimidin-7-yl)tetrahydrofuran-3,4-diol], the IC50 in assay [1] was determined as 350 nM; in assay [2], 1 nM.

Turning to `O[C@@H]1[C@H](O)[C@@H]([C@H](O)c2ccc(Cl)c(F)c2)O[C@H]1n1ccc2cncnc21` [Example 115, (2R,3S,4R,5R)-2-((R)-(4-chloro-3-fluorophenyl)(hydroxy)methyl)-5-(7H-pyrrolo[2,3-d]pyrimidin-7-yl)tetrahydrofuran-3,4-diol], the results for the 50% inhibitory concentration (IC50) in assay [1] and in assay [2] were 46 nM and 2 nM, respectively.

For the compound `Cc1ncnc2c1ccn2[C@@H]1O[C@H]([C@@H](C)O)[C@@H](O)[C@H]1O` [Example 44, (2R,3S,4R,5R)-2-((R)-1-hydroxyethyl)-5-(4-methyl-7H-pyrrolo[2,3-d]pyrimidin-7-yl)tetrahydrofuran-3,4-diol], the IC50 in assay [1] turned out to be 3400 nM; in assay [2], 52 nM.

In the case of `Cc1ncnc2c1ccn2[C@@H]1O[C@H]([C@H](O)c2ccccc2)[C@@H](O)[C@H]1O` [Example 26, (2R,3S,4R,5R)-2-((R)-hydroxy(phenyl)methyl)-5-(4-methyl-7H-pyrrolo[2,3-d]pyrimidin-7-yl)tetrahydrofuran-3,4-diol], the IC50 in assay [1] stood at 211 nM; in assay [2], 18 nM.

For `CC[C@@H](O)[C@H]1O[C@@H](n2ccc3c(C)nc(N)nc32)[C@H](O)[C@@H]1O` [Example 62, (2R,3R,4S,5R)-2-(2-amino-4-methyl-7H-pyrrolo[2,3-d]pyrimidin-7-yl)-5-((R)-1-hydroxypropyl)tetrahydrofuran-3,4-diol], the IC50 in assay [1] turned out to be 2300 nM; in assay [2], 52 nM.

With `Cc1cc([C@@H](O)[C@H]2O[C@@H](n3ccc4c(C)ncnc43)[C@H](O)[C@@H]2O)ccc1F` [Example 10, (2R,3S,4R,5R)-2-((R)-(4-fluoro-3-methylphenyl)(hydroxy)methyl)-5-(4-methyl-7H-pyrrolo[2,3-d]pyrimidin-7-yl)tetrahydrofuran-3,4-diol], the IC50 in assay [1] came out at 43 nM; in assay [2] it was 7 nM.

Regarding `Nc1ncnc2c1ccn2[C@@H]1O[C@H]([C@H](O)c2ccc(Cl)c(F)c2)[C@@H](O)[C@H]1O` [Example 88, (2R,3R,4S,5R)-2-(4-amino-7H-pyrrolo[2,3-d]pyrimidin-7-yl)-5-((R)-(4-chloro-3-fluorophenyl)(hydroxy)methyl)tetrahydrofuran-3,4-diol], the values for the half-maximal inhibitory concentration (IC50) in assay [1] and in assay [2] were 3 nM and 1 nM, respectively.

Turning to `COc1cc([C@@H](O)[C@H]2O[C@@H](n3ccc4c(C)ncnc43)[C@H](O)[C@@H]2O)ccc1F` [Example 12, (2R,3S,4R,5R)-2-((R)-(4-fluoro-3-methoxyphenyl)(hydroxy)methyl)-5-(4-methyl-7H-pyrrolo[2,3-d]pyrimidin-7-yl)tetrahydrofuran-3,4-diol], the IC50 was 100 nM in assay [1] and 12 nM in assay [2].

With `Cc1ncnc2c1ccn2[C@@H]1O[C@H]([C@H](O)c2ccc(F)c(Cl)c2)[C@@H](O)[C@H]1O` [Example 11, (2R,3S,4R,5R)-2-((R)-(3-chloro-4-fluorophenyl)(hydroxy)methyl)-5-(4-methyl-7H-pyrrolo[2,3-d]pyrimidin-7-yl)tetrahydrofuran-3,4-diol], the figures for the concentration for half-maximal inhibition (IC50) in assay [1] and in assay [2] were 15 nM and 3 nM, respectively.

Take `Cc1ncnc2c1ccn2[C@@H]1O[C@H]([C@H](O)c2ccc(F)c(C#N)c2)[C@@H](O)[C@H]1O` [Example 13]: the IC50 turned out to be 112 nM in assay [1] and 4 nM in assay [2].

As to `Cc1nc(C)c2ccn([C@@H]3O[C@H]([C@H](O)c4ccc(F)cc4)[C@@H](O)[C@H]3O)c2n1` [Example 99, (2R,3R,4S,5R)-2-(2,4-dimethyl-7H-pyrrolo[2,3-d]pyrimidin-7-yl)-5-((R)-(4-fluorophenyl)(hydroxy)methyl)tetrahydrofuran-3,4-diol], the IC50 in assay [1] came to 364 nM; in assay [2] it was 21 nM.

Turning to `Nc1ncnc2c1c(F)cn2[C@@H]1O[C@H]([C@H](O)c2ccc(F)cn2)[C@@H](O)[C@H]1O` [Example 83, (2R,3R,4S,5R)-2-(4-amino-5-fluoro-7H-pyrrolo[2,3-d]pyrimidin-7-yl)-5-((R)-(5-fluoropyridin-2-yl)(hydroxy)methyl)tetrahydrofuran-3,4-diol], the IC50 in assay [1] came out at 323 nM; in assay [2] it was 13 nM.

Turning to `Nc1ncnc2c1ccn2[C@@H]1O[C@H]([C@H](O)c2ccc(F)cc2)[C@@H](O)[C@H]1O` [Example 86, (2R,3R,4S,5R)-2-(4-amino-7H-pyrrolo[2,3-d]pyrimidin-7-yl)-5-((R)-(4-fluorophenyl)(hydroxy)methyl)tetrahydrofuran-3,4-diol], the IC50 in assay [1] worked out at 9 nM; in assay [2], 2 nM.

`Cc1cc(C(O)[C@H]2O[C@@H](n3ccc4c(C)ncnc43)[C@H](O)[C@@H]2O)ccn1` (stereo in doubt) [Example 111, (2R,3S,4R,5R)-2-((R)-hydroxy(2-methylpyridin-4-yl)methyl)-5-(4-methyl-7H-pyrrolo[2,3-d]pyrimidin-7-yl)tetrahydrofuran-3,4-diol]: the half-inhibitory concentration (IC50) in assay [1] was found to be 148 nM; in assay [2], 12 nM.

As for `Cc1ncnc2c1ccn2[C@@H]1O[C@H]([C@H](O)c2cccc(Cl)c2)[C@@H](O)[C@H]1O` [Example 32, (2R,3S,4R,5R)-2-((R)-(3-chlorophenyl)(hydroxy)methyl)-5-(4-methyl-7H-pyrrolo[2,3-d]pyrimidin-7-yl)tetrahydrofuran-3,4-diol], the half-maximal inhibitory concentration (IC50) in assay [1] worked out at 25 nM; in assay [2], 5 nM.

For the compound `Cc1ncnc2c1ccn2[C@@H]1O[C@H]([C@H](F)c2ccc(F)c(F)c2)[C@@H](O)[C@H]1O` [Example 92, (2S,3S,4R,5R)-2-((R)-(3,4-difluorophenyl)fluoromethyl)-5-(4-methyl-7H-pyrrolo[2,3-d]pyrimidin-7-yl)tetrahydrofuran-3,4-diol], the IC50 in assay [1] is 257 nM; in assay [2], 14 nM.

Consider `CCC[C@@H](O)[C@H]1O[C@@H](n2ccc3c(C)nc(N)nc32)[C@H](O)[C@@H]1O` [Example 63, (2R,3R,4S,5R)-2-(2-amino-4-methyl-7H-pyrrolo[2,3-d]pyrimidin-7-yl)-5-((R)-1-hydroxybutyl)tetrahydrofuran-3,4-diol], for which the half-inhibitory concentration (IC50) in assay [1] stood at 3400 nM; in assay [2], 38 nM.

Take `Cc1ncnc2c1ccn2[C@@H]1O[C@H]([C@H](O)c2cc(F)cc(F)c2)[C@@H](O)[C@H]1O` [Example 36, (2R,3S,4R,5R)-2-((R)-(3,5-difluorophenyl)(hydroxy)methyl)-5-(4-methyl-7H-pyrrolo[2,3-d]pyrimidin-7-yl)tetrahydrofuran-3,4-diol]: the values for the half-maximal inhibitory concentration (IC50) in assay [1] and in assay [2] were 44 nM and 6 nM, respectively.

For `Nc1ncnc2c1ccn2[C@@H]1O[C@H]([C@H](O)c2ccc(Cl)cc2)[C@@H](O)[C@H]1O` [Example 87, (2R,3R,4S,5R)-2-(4-amino-7H-pyrrolo[2,3-d]pyrimidin-7-yl)-5-((R)-(4-chlorophenyl)(hydroxy)methyl)tetrahydrofuran-3,4-diol], the IC50 in assay [1] is 5 nM; in assay [2] it was 1 nM.

As to `Cc1ncnc2c1ccn2[C@@H]1O[C@H]([C@@H](O)c2ccc(F)cc2)[C@@H](O)[C@H]1O` [Example 39, (2R,3S,4R,5R)-2-((S)-(4-fluorophenyl)(hydroxy)methyl)-5-(4-methyl-7H-pyrrolo[2,3-d]pyrimidin-7-yl)tetrahydrofuran-3,4-diol], the 50% inhibitory concentration (IC50) was found to be 10500 nM in assay [1] and 1550 nM in assay [2].

With `Cc1ncnc2c1ccn2[C@@H]1O[C@H]([C@H](O)c2cccc(F)c2)[C@@H](O)[C@H]1O` [Example 34, (2R,3S,4R,5R)-2-((R)-(3-fluorophenyl)(hydroxy)methyl)-5-(4-methyl-7H-pyrrolo[2,3-d]pyrimidin-7-yl)tetrahydrofuran-3,4-diol], the concentration for half-maximal inhibition (IC50) in assay [1] came out at 26 nM; in assay [2] it was 6 nM.

`N[C@H](c1ccc(Cl)c(F)c1)[C@H]1O[C@@H](n2ccc3cncnc32)[C@H](O)[C@@H]1O` [Example 116, (2R,3S,4R,5R)-2-((R)-amino(4-chloro-3-fluorophenyl)methyl)-5-(7H-pyrrolo[2,3-d]pyrimidin-7-yl)tetrahydrofuran-3,4-diol]: the half-inhibitory concentration (IC50) in assay [1] amounted to 1640 nM; in assay [2], 5 nM.

On to `Cc1ncnc2c1ccn2[C@@H]1O[C@H]([C@@H](O)c2cccc(Cl)c2)[C@@H](O)[C@H]1O` [Example 33, (2R,3S,4R,5R)-2-((S)-(3-chlorophenyl)(hydroxy)methyl)-5-(4-methyl-7H-pyrrolo[2,3-d]pyrimidin-7-yl)tetrahydrofuran-3,4-diol], for which the IC50 in assay [1] worked out at 4400 nM; in assay [2] it was 2640 nM.
